Measured values as given in publication PMC2946308, “Sialic acid transport and catabolism are cooperatively regulated by SiaR and CRP in nontypeable Haemophilus influenzae” (BMC Microbiology, 2010).

Target: T1, SiaR (Haemophilus influenzae, UniProt P44540)
T1 construct: gene HI_0143; C-terminal His-tag, plasmid pJJ185 (earlier work), expressed in E. coli, tag not reported cut
Assay: EMSA with nan-siaPT intergenic DNA probe
Format: binding
Conditions: 100 μM GlcN-6P; co-activator; serial dilutions of SiaR; 15 nM DNA probe; pH 7.4, room temperature

T1 sequence (P44540 whole entry): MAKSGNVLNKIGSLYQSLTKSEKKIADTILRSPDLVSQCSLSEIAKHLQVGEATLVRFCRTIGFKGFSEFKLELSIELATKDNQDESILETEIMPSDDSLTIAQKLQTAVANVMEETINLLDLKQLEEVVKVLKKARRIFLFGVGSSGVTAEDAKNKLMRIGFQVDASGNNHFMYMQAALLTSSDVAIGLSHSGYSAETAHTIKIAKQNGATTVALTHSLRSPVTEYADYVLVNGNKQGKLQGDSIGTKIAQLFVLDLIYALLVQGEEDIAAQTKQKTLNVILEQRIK

N[C@H]1C(O)O[C@H](COP(=O)(O)O)[C@@H](O)[C@@H]1O (stereo partly shown) [GlcN-6P]
EMSA with nan-siaPT intergenic DNA probe: SiaR bound the probe and GlcN-6P slightly increased the binding affinity
